Experimental findings from patent publication US9168259B2 (GRÜNENTHAL GMBH, priority 2010, dated 2015) are described below.

The structures appear in SMILES notation.

This experiment addresses T1, KCNQ2/3 channels (Homo sapiens, UniProt O43525+O43526).
T1 construct: expressed in transfected cells
The experiment can be described thus: Fluorescence assay using a voltage sensitive dye (fluorimetry). Particulars: CHO-K1 cells expressing KCNQ2/3; for Emax: CHO-K1, plateau effect relative to saturated retigabine (50 μM) = 100%, negative values = antagonistic, read-out: Fluorimetry % efficacy (retigabine = 100%); for EC50: IC50 where % efficacy is negative, read-out: Fluorimetry EC50/IC50. In kind it is cell-based.

T1 sequence (O43526 whole entry): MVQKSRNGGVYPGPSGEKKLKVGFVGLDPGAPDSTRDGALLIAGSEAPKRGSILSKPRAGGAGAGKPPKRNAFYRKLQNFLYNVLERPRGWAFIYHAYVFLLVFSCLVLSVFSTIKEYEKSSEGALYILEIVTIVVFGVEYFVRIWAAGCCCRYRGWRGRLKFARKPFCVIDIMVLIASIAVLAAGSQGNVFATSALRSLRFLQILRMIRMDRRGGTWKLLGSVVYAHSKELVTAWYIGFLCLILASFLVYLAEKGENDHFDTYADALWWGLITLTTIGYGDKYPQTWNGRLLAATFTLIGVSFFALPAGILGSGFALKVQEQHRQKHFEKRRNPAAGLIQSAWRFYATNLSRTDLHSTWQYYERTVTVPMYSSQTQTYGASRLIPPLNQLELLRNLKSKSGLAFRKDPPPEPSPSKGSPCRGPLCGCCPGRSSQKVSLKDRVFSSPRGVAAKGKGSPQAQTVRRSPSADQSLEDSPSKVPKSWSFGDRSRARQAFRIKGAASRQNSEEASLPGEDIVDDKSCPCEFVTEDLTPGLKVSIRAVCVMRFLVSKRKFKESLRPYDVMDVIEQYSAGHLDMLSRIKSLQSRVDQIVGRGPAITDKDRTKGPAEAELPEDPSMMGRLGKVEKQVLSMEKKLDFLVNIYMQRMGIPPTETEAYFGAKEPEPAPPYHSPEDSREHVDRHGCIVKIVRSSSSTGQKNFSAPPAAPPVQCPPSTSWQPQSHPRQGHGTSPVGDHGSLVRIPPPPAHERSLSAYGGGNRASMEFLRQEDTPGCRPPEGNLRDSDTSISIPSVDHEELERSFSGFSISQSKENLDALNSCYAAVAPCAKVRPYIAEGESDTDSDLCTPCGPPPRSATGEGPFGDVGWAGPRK
T1 sequence (O43525 whole entry): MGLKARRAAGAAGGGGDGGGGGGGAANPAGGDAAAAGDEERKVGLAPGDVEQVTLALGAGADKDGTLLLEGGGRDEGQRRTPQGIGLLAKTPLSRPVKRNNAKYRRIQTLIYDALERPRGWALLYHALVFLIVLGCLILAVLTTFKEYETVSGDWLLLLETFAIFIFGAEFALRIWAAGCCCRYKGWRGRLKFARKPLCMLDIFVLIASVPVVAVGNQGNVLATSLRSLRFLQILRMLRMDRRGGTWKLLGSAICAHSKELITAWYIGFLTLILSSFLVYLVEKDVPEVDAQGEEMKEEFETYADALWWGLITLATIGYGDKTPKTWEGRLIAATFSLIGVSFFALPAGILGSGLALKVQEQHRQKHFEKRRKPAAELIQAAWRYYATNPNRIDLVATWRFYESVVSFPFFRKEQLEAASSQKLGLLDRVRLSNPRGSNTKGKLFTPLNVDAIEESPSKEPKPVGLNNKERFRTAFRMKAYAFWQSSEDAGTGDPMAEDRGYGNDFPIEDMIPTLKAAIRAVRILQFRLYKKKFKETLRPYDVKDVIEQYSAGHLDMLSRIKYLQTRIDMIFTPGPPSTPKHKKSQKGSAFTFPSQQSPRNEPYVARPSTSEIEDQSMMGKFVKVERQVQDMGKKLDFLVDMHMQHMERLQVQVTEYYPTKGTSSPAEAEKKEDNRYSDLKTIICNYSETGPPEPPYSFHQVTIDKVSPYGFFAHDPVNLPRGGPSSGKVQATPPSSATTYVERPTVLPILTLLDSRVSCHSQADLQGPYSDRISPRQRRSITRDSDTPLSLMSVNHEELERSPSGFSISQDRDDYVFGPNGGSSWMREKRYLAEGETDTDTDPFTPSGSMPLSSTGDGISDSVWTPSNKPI

As for `CCCSc1nc(N2CCOCC2)cc(C)c1C(=O)NCc1cccc(F)c1` [Example 56, N-[(3-Fluorophenyl)-methyl]-4-methyl-6-morpholin-4-yl-2-(propylsulfanyl)-pyridine-3-carboxylic acid amide], the Emax worked out at 167% and the EC50 came to 77 nM.

Consider `CCSc1nc(N(C)Cc2ccncc2)cc(C)c1C(=O)NCc1cccc(F)c1` [Example 118, 2-Ethylsulfanyl-N-[(3-fluorophenyl)-methyl]-4-methyl-6-[methyl-(pyridin-4-yl-methyl)-amino]-pyridine-3-carboxylic acid amide], for which the Emax came to 3%.

Regarding `CCSc1nc(N2CCOCC2)cc(C)c1C(=O)NCc1ccc(F)c(COC)c1` [Example 149, 2-Ethylsulfanyl-N-[[4-fluoro-3-(methoxymethyl)-phenyl]-methyl]-4-methyl-6-morpholin-4-yl-pyridine-3-carboxylic acid amide], the Emax turned out to be 136% and the EC50 amounted to 451 nM.

For the compound `CCSc1nc(NCCOC)cc(C)c1C(=O)NCc1cccc(F)c1` [Example 36, 2-Ethylsulfanyl-N-[(3-fluorophenyl)-methyl]-6-(2-methoxy-ethylamino)-4-methyl-pyridine-3-carboxylic acid amide], the Emax was 125% and the EC50 is 6000 nM.

For the compound `CCSc1nc(N(C)c2ccccc2)cc(C)c1C(=O)NCc1cccc(F)c1` [Example 302, 2-Ethylsulfanyl-N-[(3-fluorophenyl)-methyl]-4-methyl-6-(N-methyl-anilino)-pyridine-3-carboxylic acid amide], the Emax came out at 93% and the EC50 stood at 278 nM.

Consider `CCSc1nc(N2CCOCC2)cc(C)c1C(=O)NCC(C)(C)C` [Example 47, N-(2,2-Dimethyl-propyl)-2-ethylsulfanyl-4-methyl-6-morpholin-4-yl-pyridine-3-carboxylic acid amide], for which the Emax was found to be 119% and the EC50 was determined as 2610 nM.

In the case of `CCC(C)c1nc(N2CCOCC2)cc(C)c1C(=O)NCc1cccc(F)c1` (centres unmarked) [Example 216, N-[(3-Fluorophenyl)-methyl]-4-methyl-2-(1-methyl-propyl)-6-morpholin-4-yl-pyridine-3-carboxylic acid amide], the Emax is 181% and the EC50 turned out to be 69 nM.

In the case of `CCSc1nc(N2CCOCC2CCOC)cc(C)c1C(=O)NCc1cccc(F)c1` (centres unmarked) [Example 340, 2-Ethylsulfanyl-N-[(3-fluorophenyl)-methyl]-6-[3-(2-methoxy-ethyl)-morpholin-4-yl]-4-methyl-pyridine-3-carboxylic acid amide], the Emax was determined as 152% and the EC50 came to 274 nM.

For `Cc1cc(N2CCOC[C@H]2C)nc(N(C)C)c1C(=O)NCCCC(C)(C)C` [Example 183, 2-Dimethylamino-N-(4,4-dimethyl-pentyl)-4-methyl-6-[(3R)-3-methyl-morpholin-4-yl]-pyridine-3-carboxylic acid amide], the Emax is 221% and the EC50 was 168 nM.

Regarding `Cc1cc(N2CCOCC2)nc(OCC2CC2)c1C(=O)NCc1ccc(Cl)cc1` [Example 271, N-[(4-Chlorophenyl)-methyl]-2-(cyclopropyl-methoxy)-4-methyl-6-morpholin-4-yl-pyridine-3-carboxylic acid amide], the Emax stood at 128% and the EC50 was 93 nM.

`CCSc1nc(N(C)CCCOC)cc(C)c1C(=O)NCc1cccc(F)c1` [Example 128, 2-Ethylsulfanyl-N-[(3-fluorophenyl)-methyl]-6-(3-methoxy-propyl-methyl-amino)-4-methyl-pyridine-3-carboxylic acid amide]: the Emax came to 142% and the EC50 is 785 nM.

For the compound `COc1nc(N2CCOCC2)cc(C)c1C(=O)NCc1cc(F)cc(F)c1` [Example 3, N-[(3,5-Difluoro-phenyl)-methyl]-2-methoxy-4-methyl-6-morpholin-4-yl-pyridine-3-carboxylic acid amide], the Emax worked out at 132% and the EC50 is 233 nM.

With `CCSc1nc(N2CCOCC2)cc(C)c1C(=O)NCCC1CCCCO1` (centres unmarked) [Example 68, 2-Ethylsulfanyl-4-methyl-6-morpholin-4-yl-N-(2-tetrahydro-pyran-2-yl-ethyl)-pyridine-3-carboxylic acid amide], the Emax worked out at 134% and the EC50 stood at 7370 nM.

As for `COc1nc(N2CCCOCC2)cc(C)c1C(=O)NCc1cccc(F)c1` [Example 98, N-[(3-Fluorophenyl)-methyl]-2-methoxy-4-methyl-6-([1,4]oxazepan-4-yl)-pyridine-3-carboxylic acid amide], the Emax was 146% and the EC50 is 2310 nM.

`CCSc1nc(N2CCOCC2)cc(C)c1C(=O)NCCOC(C)C` [Example 103, 2-Ethylsulfanyl-N-(2-isopropoxy-ethyl)-4-methyl-6-morpholin-4-yl-pyridine-3-carboxylic acid amide]: the Emax is 142% and the EC50 stood at 4520 nM.

Turning to `CCSc1nc(N2CCOC(C)C2)cc(C)c1C(=O)NCc1cccc(F)c1` (racemic) [Example 48, 2-Ethylsulfanyl-N-[(3-fluorophenyl)-methyl]-4-methyl-6-(2-methyl-morpholin-4-yl)-pyridine-3-carboxylic acid amide], the Emax came to 145% and the EC50 worked out at 217 nM.

For the compound `CCSc1nc(N2CCOCC2)cc(C)c1C(=O)NCc1ccc(C(F)(F)F)c(F)c1` [Example 142, 2-Ethylsulfanyl-N-[[3-fluoro-4-(trifluoromethyl)-phenyl]-methyl]-4-methyl-6-morpholin-4-yl-pyridine-3-carboxylic acid amide], the Emax is 125% and the EC50 is 38 nM.

In the case of `COc1nc(N2CCOC[C@H]2C)cc(C)c1C(=O)NCCCC(C)(C)C` [Example 186, N-(4,4-Dimethyl-pentyl)-2-methoxy-4-methyl-6-[(3R)-3-methyl-morpholin-4-yl]-pyridine-3-carboxylic acid amide], the Emax amounted to 240% and the EC50 stood at 63 nM.

For `Cc1cc(N2CCOCC2)nc(OCCF)c1C(=O)NCc1ccc(Cl)cc1` [Example 269, N-[(4-Chlorophenyl)-methyl]-2-(2-fluoro-ethoxy)-4-methyl-6-morpholin-4-yl-pyridine-3-carboxylic acid amide], the Emax was 119% and the EC50 turned out to be 147 nM.

Take `CCOc1nc(N2CCOCC2)cc(C)c1C(=O)NCc1ccc(F)c(F)c1` [Example 91, N-[(3,4-Difluoro-phenyl)-methyl]-2-ethoxy-4-methyl-6-morpholin-4-yl-pyridine-3-carboxylic acid amide]: the Emax was found to be 127% and the EC50 stood at 117 nM.

Take `CCSc1nc(N2CCO[C@H](COC)C2)cc(C)c1C(=O)NCc1ccc(Cl)cc1` [Example 255, N-[(4-Chlorophenyl)-methyl]-2-ethylsulfanyl-6-[(2S)-2-(methoxymethyl)-morpholin-4-yl]-4-methyl-pyridine-3-carboxylic acid amide]: the Emax came out at 121% and the EC50 is 169 nM.

For the compound `CCSc1nc(N2CCOCC2)cc(C)c1C(=O)NCC1CCCCC1` [Example 76, N-(Cyclohexyl-methyl)-2-ethylsulfanyl-4-methyl-6-morpholin-4-yl-pyridine-3-carboxylic acid amide], the Emax was 179% and the EC50 stood at 91 nM.

On to `CCSc1nc(N2CCOCC2)cc(C)c1C(=O)NCc1ccc(OC(F)F)cc1` [Example 288, N-[[4-(Difluoro-methoxy)-phenyl]-methyl]-2-ethylsulfanyl-4-methyl-6-morpholin-4-yl-pyridine-3-carboxylic acid amide], for which the Emax amounted to 138% and the EC50 was 435 nM.

As to `CCSc1nc(N2CCOCC2)cc(C)c1C(=O)NCc1cccc(Cl)c1` [Example 125, N-[(3-Chlorophenyl)-methyl]-2-ethylsulfanyl-4-methyl-6-morpholin-4-yl-pyridine-3-carboxylic acid amide], the Emax amounted to 152% and the EC50 was determined as 87 nM.

With `CCN(C)c1nc(N2CCOCC2)cc(C)c1C(=O)NCc1ccc(F)cc1` [Example 174, 2-(Ethyl-methyl-amino)-N-[(4-fluorophenyl)-methyl]-4-methyl-6-morpholin-4-yl-pyridine-3-carboxylic acid amide], the Emax amounted to 221% and the EC50 was found to be 422 nM.

`CCN(C)c1nc(N2CCOCC2)cc(C)c1C(=O)NCCCC(C)(C)C` [Example 189, N-(4,4-Dimethyl-pentyl)-2-(ethyl-methyl-amino)-4-methyl-6-morpholin-4-yl-pyridine-3-carboxylic acid amide]: the Emax stood at 225% and the EC50 came to 284 nM.

Take `CCCc1nc(N2CCOCC2)cc(C)c1C(=O)NCCCC(F)(F)F` [Example 320, 4-Methyl-6-morpholin-4-yl-2-propyl-N-(4,4,4-trifluoro-butyl)-pyridine-3-carboxylic acid amide]: the Emax turned out to be 192% and the EC50 is 826 nM.

`CCN(C)c1nc(N2CCOCC2)cc(C)c1C(=O)NCc1cc(F)cc(F)c1` [Example 204, N-[(3,5-Difluoro-phenyl)-methyl]-2-(ethyl-methyl-amino)-4-methyl-6-morpholin-4-yl-pyridine-3-carboxylic acid amide]: the Emax was 239% and the EC50 worked out at 141 nM.

Regarding `CCSc1nc(N2CCOCC2)cc(C)c1C(=O)NCC#CC(C)(C)C` [Example 344, N-(4,4-Dimethyl-pent-2-ynyl)-2-ethylsulfanyl-4-methyl-6-morpholin-4-yl-pyridine-3-carboxylic acid amide], the Emax was 253% and the EC50 stood at 41 nM.

With `Cc1cc(N2CCOCC2)nc(C(C)C)c1C(=O)NCCCC(F)(F)F` [Example 315, 2-Isopropyl-4-methyl-6-morpholin-4-yl-N-(4,4,4-trifluoro-butyl)-pyridine-3-carboxylic acid amide], the Emax was found to be 187% and the EC50 amounted to 314 nM.
